Experimental data as given in EPA's ToxValDB 9.5.

Tested on: Rattus norvegicus
[1] = acute, duration: 1 days, injection, intraperitoneal, M, Sprague-Dawley, anti-edema effect (reduction in paw edema)
[2] = chronic, duration: 2 years, oral, diet, F, Sprague-Dawley, blood: eosinophils (18 months)
[3] = short-term, duration: 14 days, oral, gavage, M, Crj:CD, red blood cell count
[4] = short-term, duration: 14 days, oral, gavage, M, Crj:CD, white blood cell count
[5] = subchronic, duration: 90 days, oral, diet, M, blood: leukocytes (3 months)
[6] = subchronic, duration: 90 days, oral, diet, M, blood: monocytes (1 month)

With `O=C([O-])C(F)(F)C(F)(F)C(F)(F)C(F)(F)C(F)(F)C(F)(F)C(F)(F)F.[NH4+]` [Ammonium perfluorooctanoate] as the compound, how does the LOEL [1] read?
The LOEL was 50 mg/kg-day.

And the NOEL [1]?
The NOEL was 25 mg/kg-day.

What about the NOEL (acute, duration: 1 days, injection, intraperitoneal, M, Sprague-Dawley, paw thickness (0.5 hr) + paw thickness (1 hr) + paw thickness (time 0)) of the same compound?
Its NOEL is 150 mg/kg-day.

What about the LOEL (acute, duration: 1 days, injection, intraperitoneal, M, Sprague-Dawley, paw thickness (3 hrs, […] after PFOA) + paw thickness (4 hrs, 2.5 hrs after PFOA)) of the same compound?
The LOEL was 150 mg/kg-day.

What about the LOEL (acute, duration: 1 days, injection, intraperitoneal, M, Sprague-Dawley, paw thickness ([…]) + paw thickness (2 hr) + paw thickness (3 hr) + paw thickness (4 hr)) of the same compound?
Its LOEL is 150 mg/kg-day.

What about the NOEL (acute, duration: 1 days, injection, intraperitoneal, M, Sprague-Dawley, paw thickness ([…], time of PFOA injection) + paw thickness (2 hrs, 0.5 hrs after PFOA)) of the same compound?
The NOEL was 150 mg/kg-day.

And the NOEL (acute, duration: 1 days, injection, intraperitoneal, M, Sprague-Dawley, paw thickness (edema): 0 hr, after carrageenan + paw thickness (edema): 0 hr, before carrageenan + paw thickness (edema): 0.5 hr + paw …)?
The NOEL was 100 mg/kg-day.

And the LOEL (acute, duration: 1 days, injection, intraperitoneal, M, Sprague-Dawley, paw thickness (edema): […] + paw thickness (edema): 2 hr + paw thickness (edema): 2.5 hr + paw thickness (edema): 3 hr + paw thickness (…)?
Its LOEL is 100 mg/kg-day.

And the NOEL (acute, duration: 24 hours, injection, intraperitoneal, M, Fischer 344, blood serum: TNF-alpha levels)?
The NOEL was 150 mg/kg-day.

And the NOEL (chronic, duration: 2 years, oral, diet, F, Sprague-Dawley, blood: eosinophils (12 months) + blood: eosinophils (24 months) + blood: eosinophils (3 months) + blood: eosinophils (6 months) + blood: …)?
Its NOEL is 23.4 mg/kg-day.

What about the LOEL [2] of the same compound?
Its LOEL is 23.4 mg/kg-day.

What about the NOEL [2] of the same compound?
Its NOEL is 2.34 mg/kg-day.

And the LOEL (chronic, duration: 2 years, oral, diet, F, Sprague-Dawley, blood: lymphocytes (18 months) + blood: neutrophils (18 months) + spleen: spleen: absolute weight (2 years) + spleen: spleen: relative …)?
The LOEL was 2.34 mg/kg-day.

And the NOEL (chronic, duration: 2 years, oral, diet, M, Sprague-Dawley, blood: eosinophils (12 months) + blood: eosinophils (18 months) + blood: eosinophils (24 months) + blood: eosinophils (3 months) + blood: …)?
Its NOEL is 23.4 mg/kg-day.

And the LOEL (chronic, duration: 2 years, oral, diet, M, Sprague-Dawley, blood: leukocyte count (12 months) + blood: leukocyte count (3 months) + blood: leukocyte count (6 months) + blood: lymphocytes (18 months…)?
The LOEL was 2.34 mg/kg-day.

What about the NOEL (short-term, duration: 14 days, oral, gavage, M, Crj:CD, blood: NKR-P1A+ + CD3+ + CD4+ + CD45RA+ + CD8a+ + lymphocyte + monocyte + NKR-P1A+ + spleen: spleen: absolute weight + spleen: spleen: …) of the same compound?
Its NOEL is 50 mg/kg-day.

And the LOEL [3]?
The LOEL was 50 mg/kg-day.

And the NOEL [3]?
The NOEL was 5 mg/kg-day.

What about the LOEL [4] of the same compound?
Its LOEL is 5 mg/kg-day.

And the NOEL [4]?
Its NOEL is 0.5 mg/kg-day.

And the NOEL (short-term, duration: 24 days, oral, gavage, M, Crl:CD(SD) BR, IgM antibody titer (SRBC) + mean serum corticosterone + spleen: incidence of spleen hematopoiesis + spleen: spleen: absolute weight + spleen…)?
Its NOEL is 30 mg/kg-day.

What about the LOEL (short-term, duration: 24 days, oral, gavage, M, Crl:CD(SD) BR, thymus: thymus: relative weight) of the same compound?
The LOEL was 30 mg/kg-day.

And the NOEL (short-term, duration: 28 days, oral, gavage, F, Sprague-Dawley, basophils + eosinophils + lymphocytes + monocytes + neutrophils + spleen: spleen: absolute weight + spleen: spleen: relative weight + thymus…)?
Its NOEL is 30 mg/kg-day.

And the NOEL (short-term, duration: 28 days, oral, gavage, F, Sprague-Dawley, basophils + eosinophils + lymphocytes + monocytes + spleen: spleen: absolute weight + spleen: spleen: relative weight + thymus: thymus: …)?
Its NOEL is 30 mg/kg-day.

And the LOEL (short-term, duration: 28 days, oral, gavage, F, Sprague-Dawley, neutrophils)?
The LOEL was 30 mg/kg-day.

And the NOEL (short-term, duration: 28 days, oral, gavage, M, Sprague-Dawley, basophils + eosinophils + lymphocytes + monocytes + neutrophils + spleen: spleen: absolute weight + spleen: spleen: relative weight + thymus…)?
Its NOEL is 30 mg/kg-day.

And the NOEL (short-term, duration: 28 days, oral, gavage, M, Sprague-Dawley, basophils + eosinophils + lymphocytes + neutrophils + spleen: spleen: absolute weight + spleen: spleen: relative weight + thymus: thymus: …)?
The NOEL was 30 mg/kg-day.

What about the LOEL (short-term, duration: 28 days, oral, gavage, M, Sprague-Dawley, monocytes + thymus: thymus: absolute weight) of the same compound?
Its LOEL is 30 mg/kg-day.

What about the NOEL (short-term, duration: 29 days, oral, gavage, M, Crl:CD(SD) BR, IgM antibody titer (SRBC) + mean serum corticosterone + spleen: incidence of spleen hematopoiesis + spleen: spleen: relative weight + spleen…) of the same compound?
The NOEL was 30 mg/kg-day.

What about the NOEL (subchronic, duration: 90 days, oral, diet, F, blood: basophils (1 month) + blood: basophils (3 months) + blood: eosinophils (1 month) + blood: eosinophils (3 months) + blood: leukocytes…) of the same compound?
The NOEL was 96 mg/kg-day.

What about the NOEL (subchronic, duration: 90 days, oral, diet, M, blood: basophils (1 month) + blood: basophils (3 months) + blood: eosinophils (1 month) + blood: eosinophils (3 months) + blood: leukocytes…) of the same compound?
Its NOEL is 96 mg/kg-day.

And the LOEL [5]?
Its LOEL is 28.8 mg/kg-day.

What about the NOEL [5] of the same compound?
The NOEL was 9.6 mg/kg-day.

And the LOEL [6]?
The LOEL was 2.88 mg/kg-day.

And the NOEL [6]?
The NOEL was 0.96 mg/kg-day.
